Measured values from US20040019121A1, “Protein prenyl transferase inhibitors in the treatment of neuroinflammatory disease” (priority 2000, published 2004).

Columns and labels:
Rho protein = Rho protein association with brain endothelial cell membranes (Western blot); type: cell-based, rat; conditions: C3-transferase treatment of brain endothelial cells
Experimental: (§1) The immortalised Lewis rat brain endothelial cell line GP8/3.9 (Greenwood et al., 1996) was maintained in Ham's F-10 medium supplemented with 17.5% FCS, 7.5 μg/ml endothelial cell growth supplement, 80 μg/ml heparin, 2 mM glutamine, 0.5 μg/ml vitamin C, 100 U/ml penicillin and 100 μg/ml streptomycin.
Ice-cold lysis buffer containing 10 mM Tris-HCl pH7.5, 5 mM MgCl2, 1 mM DTT and 1 mM PMSF was added to cells and incubated on ice for 10 min. Cells were subsequently homogenised and centrifuged at 5000 g for 10 min to remove nuclei. Supernatants were then centrifuged at 100,000 g in a Beckman Ultracentrifuge for 30 min to obtain crude membranes. Membrane pellets were washed with buffer containing 50 mM Tris-HCl pH7.5, 50 mM NaCl, 5 mM MgCl2, 1 mM DTT and 1 mM PMSF and re-centrifuged at 100,000 g for 30 min. Membrane pellets were then resuspended in sample buffer and proteins resolved on 12.5% SDS-PAGE gels. Proteins were electroblotted on nitrocellulose membranes and immunblotted with anti-Rho polyclonal antibody (Santa Cruz, Wilts, UK). Rho proteins within membrane fractions were visualised following incubation with a 1:15,000 dilution of goat anti-rabbit-HRP (Pierce, Chester, UK) and ECL development (Amersham, Bucks,UK).
Isoprenylation of Rho proteins are essential for their efficient association with cell membranes (Adamson et al, 1992).

[1] = tested on: brain endothelial cell monolayers (GP8/3.9); assay: T-lymphocyte transendothelial migration through brain endothelial cell monolayers; type: cell-based, rat
Experimental: as §1
Lewis rat T-lymphocyte cell lines specific for purified myelin basic protein were prepared as previously described (Pryce et al, 1997). Briefly, lymph nodes were collected from bovine MBP-immunised rats and the T-lymphocytes propagated by periodically alternating antigen activation with IL-2 stimulation. The cell lines express the marker of the CD4^+ T cell subset, are CD45RC^low and recognise MBP in the molecular context of MHC class II determinants (Pryce et al, 1997).
The ability of the immortalised cells to support the transendothelial migration of antigen specific T-lymphocytes was determined using a well-characterised assay as described extensively elsewhere (Adamson et al., 1999 and http://www.ucl.ac.uk/ioo/video/ sequence.avi) Briefly, T-lymphocytes were added (2×10^5 cells/well) to 24 well plates containing endothelial cell monolayers. Lymphocytes were allowed to settle and migrate over a 4 h period. To evaluate the level of migration co-cultures were placed on the stage of a phase-contrast inverted microscope housed in a temperature controlled (37° C.), 5% CO2 gassed chamber (Zeiss, Herts, U.K.). A 200×200 μm field was randomly chosen and recorded for 10 min spanning the 4 h time point using a camera linked to a time-lapse video recorder. Recordings were replayed at 160× normal speed and lymphocytes identified and counted which had either adhered to the surface of the monolayer or that had migrated through the monolayer. Lymphocytes on the surface of the monolayer were identified by their highly refractive morphology (phase-bright) and rounded or partially spread appearance. In contrast cells that had migrated through the monolayer were phase-dark, highly attenuated and were seen to probe under the endothelial cells in a distinctive manner (Pryce et al, 1997; Adamson et al, 1999: Etienne et al, 2000). All other data were expressed as a percentage of the control migrations. A minimum of three independent experiments using a minimum of 6 wells per assay were performed. The results are expressed as the means±SEM and significant differences between groups determined by Student±s t-test.

brain endothelial cells = assay: Adhesion of peripheral lymph node T-lymphocytes to brain endothelia; type: cell-based, rat; conditions: 10 μM
Experimental: as §1
Adhesion assays were carried out as previously described (Pryce et. al., 1994; Adamson et al., 1999). Briefly, peripheral lymph node-derived cells (PLNC) were isolated and T-lymphocytes obtained after purification on nylon wool columns. These cells which represent non-antigen activated T-lymphocytes are therefore non-migratory but highly adhesive when activated with the mitogen concanavalin A (Pryce et al., 1994, Greenwood and Calder 1993; Male et al., 1994 ). PLNC were activated for 24 h with type V concanavalin A, washed twice in HBSS, and cells labelled with 3 μCi [^3H]-deoxy glucose per 10^6 cells in HBSS for 90 min at 37° C. After washing the cells three times with HBSS they were resuspended in RPMI 1640 medium containing 10% FCS. Endothelial monolayers grown on 96 well plates were prepared by removing the culture medium and washing the cells four times with HBSS. 200 μl of [^3H]-labelled PLNC at a concentration of 1×10^6/ml were then added to each well and incubated at 37° C. for 1.5 h. In each assay, β-emissions from each of 6 replicate blank wells were determined to provide a value for the total amount of radioactivity added per well and to allow calculation of the specific activity of the cells. After incubation, non-adherent cells were removed with four separate washes from the four poles of the well with 37° C. HBSS as previously described (Pryce et al, 1994: Adamson et al., 1999). Adherent PLNC were lysed with 2% SDS, the lysate removed, scintillant added and radioactivity quantitated by spectrometry. Results are expressed as the means±SEM between groups determined by Student's t-test.

[2] = mice, daily injections of 25 mg/kg i.p.; cited from earlier work
[3] = 10 μM, brain EC treated 24 h prior to and during 4 h co-culture, mean±SEM
[4] = 10 μM, brain EC treated 48 h prior to and during 4 h co-culture, mean±SEM
[5] = 24 h treatment plus 90 min adhesion assay
[6] = 48 h treatment plus 90 min adhesion assay

Row | Compound | subcellular distribution of Rho proteins (Rho protein) | transendothelial lymphocyte migration ([1]; C3 transferase treatment of brain EC, n=12) | transendothelial lymphocyte migration [1, 3] | transendothelial lymphocyte migration [1, 4] | T-lymphocyte adhesion to brain endothelial cells (brain endothelial cells; [5]) | T-lymphocyte adhesion to brain endothelial cells (brain endothelial cells; [6]) | time required to obtain steady state plasma concentrations [2]
1 | C3 transferase | did not affect | 18.4±4.1 % of control values |  |  |  |  | 
2 | COC(=O)[C@H](CC(C)C)NC(=O)c1ccc(NC[C@@H](N)CS)cc1-c1cccc2ccccc12 [GGTI-298] |  |  | 73.5±6.0 % of control migration | 51.6±3.1 % of control migration | did not have any significant effect | did not have any significant effect | 
3 | COC(=O)[C@H](CCSC)NC(=O)c1ccc(NC[C@@H](N)CS)cc1-c1ccccc1 [FTI-277] |  |  | did not result in a significant alteration | 77.7±4.9 % of control migration | did not have any significant effect | did not have any significant effect | 3 days
